Data reported in patent publication US9156848B2, “Treating diabetes with dipeptidyl peptidase-IV inhibitors” (Merck Sharp & Dohme Corp., priority 2012, dated 2015).
pIC50: −log10 of the molar value.

What was measured:
[1] = molecular target: dipeptidyl peptidase-IV enzyme (DPP-4) (Homo sapiens (Human), UniProt P27487); experiment: continuous fluorometric assay with substrate Gly-Pro-AMC (DPP-4 inhibition); assay type: biochemical; details: soluble human DPP-4, 50 μM Gly-Pro-AMC, pH 7.5, room temperature
Experimental: Inhibition constants are determined as follows. A continuous fluorometric assay is employed with the substrate Gly-Pro-AMC, which is cleaved by DPP-4 to release the fluorescent AMC leaving group. […] A typical reaction contains approximately 50 pM enzyme, 50 μM Gly-Pro-AMC, and buffer (100 mM HEPES, pH 7.5, 0.1 mg/ml BSA) in a total reaction volume of 100 μL. Liberation of AMC is monitored continuously in a 96-well plate fluorometer using an excitation wavelength of 360 nm and an emission wavelength of 460 nm. Under these conditions, approximately 0.8 μM AMC is produced in 30 minutes at 25 degrees C. The enzyme used in these studies was soluble (transmembrane domain and cytoplasmic extension excluded) human protein produced in a baculovirus expression system (Bac-To-Bac, Gibco BRL). […] To measure the dissociation constants for compounds, solutions of inhibitor in DMSO were added to reactions containing enzyme and substrate (final DMSO concentration is 1%). All experiments were conducted at room temperature using the standard reaction conditions described above. To determine the dissociation constants (Ki), reaction rates were fit by non-linear regression to the Michaelis-Menton equation for competitive inhibition.

cardiac allograft = details: rats; survival doubled from day 7; cited from earlier work
hematopoiesis = details: mouse, cyclophosphamide-induced neutropenia; cited from earlier work
DPP-4 = DPP-4 (Homo sapiens (Human), UniProt P27487); details: cited from earlier work
DPP-4, sequence (P27487 39-766, species assumed): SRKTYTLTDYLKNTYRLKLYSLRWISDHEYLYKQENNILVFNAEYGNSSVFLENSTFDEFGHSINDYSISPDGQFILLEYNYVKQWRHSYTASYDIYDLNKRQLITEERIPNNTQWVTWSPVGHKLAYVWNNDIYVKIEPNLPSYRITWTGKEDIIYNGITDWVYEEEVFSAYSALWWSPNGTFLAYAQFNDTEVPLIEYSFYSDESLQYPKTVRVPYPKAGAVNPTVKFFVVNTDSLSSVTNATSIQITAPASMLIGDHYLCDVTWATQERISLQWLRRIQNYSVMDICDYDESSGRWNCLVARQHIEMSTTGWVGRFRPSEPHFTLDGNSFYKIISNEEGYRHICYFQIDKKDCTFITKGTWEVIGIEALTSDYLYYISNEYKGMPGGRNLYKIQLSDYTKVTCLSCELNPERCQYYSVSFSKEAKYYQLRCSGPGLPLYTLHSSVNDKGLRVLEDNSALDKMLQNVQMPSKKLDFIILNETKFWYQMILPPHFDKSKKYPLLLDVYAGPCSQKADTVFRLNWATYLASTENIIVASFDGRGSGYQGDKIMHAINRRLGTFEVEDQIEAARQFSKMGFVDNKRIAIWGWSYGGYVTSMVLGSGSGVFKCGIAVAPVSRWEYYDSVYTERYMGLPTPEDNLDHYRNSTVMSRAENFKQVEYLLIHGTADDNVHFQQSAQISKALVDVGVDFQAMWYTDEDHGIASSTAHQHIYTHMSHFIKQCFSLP

dipeptidyl peptidase-IV enzyme (DPP-4), sequence (P27487 29-766): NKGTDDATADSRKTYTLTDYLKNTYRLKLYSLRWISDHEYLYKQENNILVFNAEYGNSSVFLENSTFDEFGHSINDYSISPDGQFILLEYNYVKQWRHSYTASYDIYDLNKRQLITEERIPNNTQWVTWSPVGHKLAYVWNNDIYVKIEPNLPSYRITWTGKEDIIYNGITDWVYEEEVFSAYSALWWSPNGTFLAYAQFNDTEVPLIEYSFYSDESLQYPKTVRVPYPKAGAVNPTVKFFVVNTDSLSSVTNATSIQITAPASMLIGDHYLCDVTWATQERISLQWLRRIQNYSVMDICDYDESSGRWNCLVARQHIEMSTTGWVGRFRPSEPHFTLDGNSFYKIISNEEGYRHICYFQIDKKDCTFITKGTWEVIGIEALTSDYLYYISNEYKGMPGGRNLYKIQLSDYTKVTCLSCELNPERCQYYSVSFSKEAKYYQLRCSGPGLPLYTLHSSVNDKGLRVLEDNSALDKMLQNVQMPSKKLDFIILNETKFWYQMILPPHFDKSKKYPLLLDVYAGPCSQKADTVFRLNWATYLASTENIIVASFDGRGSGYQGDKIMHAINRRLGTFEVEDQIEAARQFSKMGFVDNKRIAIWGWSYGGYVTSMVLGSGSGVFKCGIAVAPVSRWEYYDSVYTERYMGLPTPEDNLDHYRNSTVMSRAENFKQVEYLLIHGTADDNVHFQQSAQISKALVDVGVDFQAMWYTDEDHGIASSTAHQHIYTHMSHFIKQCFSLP

SMILES | pIC50 [1] | other results
CC(C)N1CCC(c2ccccc2)(c2ccccc2)CC1 [Prodipine, Pro-Pro-diphenyl-phosphonate] |  | cardiac allograft survival (cardiac allograft): 14 day
CC(C)[C@H](N)C(=O)N1CCC[C@H]1B(O)O [Val-Boro-Pro] |  | hematopoiesis (hematopoiesis): stimulated hematopoiesis
CC[C@H](C)[C@H](N)C(=O)N1CCC[C@H]1C(=O)N[C@H](C(=O)O)[C@@H](C)CC [diprotin A] |  | degradation of GRF to GRF[3-44] in plasma (DPP-4): prevented

Continued, in another order:

pIC50 [1] | SMILES | other results
7.73 | Cc1ccc(S(=O)(=O)N=S(C)(=O)n2cc3c(n2)CN([C@H]2CO[C@H](c4cc(F)ccc4F)[C@@H](N)C2)C3)cc1 (stereo partly drawn) [Example 1] | 
7.43 | C[C@]1(N2Cc3cn(S(C)(=O)=O)nc3C2)CO[C@H](c2cc(F)ccc2F)[C@@H](N)C1 [Example 3] | 
8.06 | C[C@]1(N2Cc3cn(S(=O)(=O)NC(=O)OCc4ccccc4)nc3C2)CO[C@H](c2cc(F)ccc2F)[C@@H](N)C1 [Example 4] | 
